Assay results: patent US20230086469A1, “AUTOANTIGENIC PEPTIDES (CALVICIFIV), PRESENTED BY TOLEROGENIC DENTRITIC CELLS, USEFUL FOR THE PERSONALIZED TREATMENT OF RHEUMATOID ARTHRITIS” (UNIVERSIDAD DE CHILE, priority 2019, published 2023)

Columns and labels:
Format in all cases: cell-based, human
[1] = test system: autologous CD4+ T cells from patients with RA; test: Co-culture of peptide-pulsed MPLA-tDCs with autologous CFSE-stained CD4+ T cells; conditions: MPLA-tDCs pulsed with peptide in comparison to mDCs, 5 days co-culture; for expression of IFN-γ by proliferating CD4+ T lymphocytes: FIG. 3A
Excerpt: FIGS. 3A-3C Modulation of antigen-specific CD4+ T cell responses by tolerogenic dendritic cells (tDCs) treated with dexamethasone and monophosphoryl lipid A (MPLA-tDCs) and pulsed with autoantigenic peptides. MPLA-tDCs and MPLA-matured DCs (mDCs), as activation control, were generated from peripheral blood monocytes of RA patients, and pulsed with previously selected peptides or mixtures of them, using a peptide derived from Aggrecan, previously described in literature, as a control peptide. Subsequently, DCs were co-cultured with autologous CFSE-stained CD4+ T cells and, after 5 days, the percentage of proliferating CD4+ T cells (CFSElo) expressing IFN-γ (FIG. 3A), L-17 (FIG. 3B) or TNF-α (FIG. 3C) was evaluated by flow cytometry. […] To compare the expression of cytokines induced by each type of DCs, a T test was performed (*p<0.05).
In order to evaluate the ability of tDCs to modulate antigen-specific CD4+ T cell responses, co-culture assays of tDCs pulsed with autoantigenic peptides and autologous CD4+ T cells from patients with RA were performed. DCs were generated from monocytes isolated from peripheral blood of patients with RA, cultured at a concentration of 2-3×10^6 cells/ml in serum-free AIM-V medium in the presence of 500 U/mL of recombinant human interleukin-4 (rhIL-4) and recombinant human […] colony stimulating factor (rhGM-CSF), for 5 days, at 37° C. and 5% CO2. […]
The effect of autoantigenic peptides to modulate effector CD4+ T cell responses of patients with RA, when are presented by tDCs generated using the protocol described in this application. […] DCs were then co-cultured with CFSE-stained CD4+ T cells and, after 5 days of culture, the percentage of proliferating CD4+T lymphocytes, expressing IFN-γ, IL-17 and TNF-α, was evaluated by flow cytometry. In each case, the percentage of decrease in the expression of proinflammatory cytokines by CD4+ T cells co-cultured with tDCs in comparison to mDCs was calculated.

[2] = test system: autologous CD4+ T cells from patients with RA; test: Co-culture of peptide-pulsed Bay-DCs with autologous CFSE-stained CD4+ T cells; conditions: Bay-DCs pulsed with peptide in comparison to mDCs, 5 days co-culture; for expression of IFN-γ by CD4+ T lymphocytes: FIG. 4A; for decrease of IL-17 expression by CD4+ T lymphocytes: FIG. 4B
Excerpt: (§1) FIGS. 4A-4C. Modulation of antigen-specific CD4+ T cell responses by tDCs generated using different protocols and pulsed with autoantigenic peptides. Two different protocols were used for tDCs generation from peripheral blood monocytes of RA patients: 1) DCs treated with Bay 11-082 (Bay-DCs); and 2) DCs treated with vitamin D3, dexamethasone and LPS (VD3-DCs); mDCs were used as control. DCs were pulsed with previously selected peptides or mixtures of them, using a peptide derived from Aggrecan, as a positive control. Then, DCs were co-cultured with autologous CFSE-stained CD4+ T cells and, after 5 days, 8 the percentage of proliferating CD4+ T cells (CFSElo) expressing IFN-γ (FIG. 4A), IL-17 (FIG. 4B) or TNF-α (FIG. 4C), was evaluated by flow cytometry. The percentage of decrease in the expression of proinflammatory cytokines by CD4+ T cells co-cultured with tDCs in comparison to mDCs was calculated.
In order to evaluate the potential of autoantigenic peptides to load tolerogenic DCs generated from different protocols to modulate antigen-specific CD4+ T cell responses, co-culture assays of tDCs pulsed with autoantigenic peptides and autologous CD4+ T cells from patients with RA were performed. DCs were generated from monocytes according to the protocol described of example 2. To differentiate other tolerogenic dendritic cells types, DCs generated from monocytes were modulated with Bay-11-7982 an irreversible inhibitor of NF-κB (Bay-DCs), or modulated with Vitamin D3, dexamethasone and LPS (VD3-DCs). As control, mature DCs (mDCs) treated only with MPLA were used.
After this, the cells were pulsed with the autoantigenic peptides in the same way as an example 2, independently with the following autoantigenic peptides; 3 peptides derived from vimentin, such as Vimentin-1, Vimentin-1 citrullinated, Vimentin-2 citrullinated, or autoantigenic peptides derived from Fibrinogen, Calreticulin and Fibronectin, Aggrecan, as a positive control was used of the activation of the autologous CD4+ T cells, and un-pulsed DCs were used as a basal activation control. Besides mixtures were considered: Mix 1: Vimentin-1 and Vimentin-1 citrullinated; Mix 2: Vimentin-2 citrullinated and Calreticulin; Mix 3: Mix 1+Mix 2.
(§2) tDCs were then co-cultured with CFSE-stained CD4+ T cells and, after 5 days of culture, the percentage of proliferating CD4+T lymphocytes, expressing IFN-γ, IL-17 and TNF-α, was evaluated by flow cytometry. In each case, the percentage of decrease in the expression of proinflammatory cytokines by CD4+ T cells co-cultured with tDCs in comparison to mDCs was calculated.

[3] = test system: autologous CD4+ T cells from patients with RA; test: Co-culture of peptide-pulsed VD3-DCs with autologous CFSE-stained CD4+ T cells; conditions: VD3-DCs pulsed with peptide in comparison to mDCs; 5 days co-culture; FIG. 4B
Excerpt: as §1, with “calculated. […]” for “calculated.”
as §2

Calreticulin
expression of IFN-γ by proliferating CD4+ T lymphocytes [1]: significantly reduced
expression of IFN-γ by CD4+ T lymphocytes [2]: significantly reduced
decrease of IL-17 expression by CD4+ T lymphocytes [2]: high percentage of decrease
decrease of IL-17 expression by CD4+ T lymphocytes [3]: high percentage of decrease

Fibrinogen
decrease of IL-17 expression by CD4+ T lymphocytes [2]: high percentage of decrease
decrease of IL-17 expression by CD4+ T lymphocytes [3]: high percentage of decrease

Fibronectin
expression of IFN-γ by proliferating CD4+ T lymphocytes [1]: significantly reduced
expression of TNF-α by proliferating CD4+ T lymphocytes ([1]; FIG. 3C): significantly decrease
expression of IFN-γ by CD4+ T lymphocytes [2]: significantly reduced
